Laboratory results reported in patent US11466044B2 (WAYNE STATE UNIVERSITY, priority 2017, dated 2022).
pIC50: −log10 of the molar value. In brackets after ≈: the same amount, converted by molar mass. Entries after “also recorded” stand apart in the source; their conditions may differ. Structures can show the parent of a compound that is named as a salt. Where two headings read alike, the source gives them in different places.

How the values were obtained:
[1] = tested on: Acinetobacter baumannii pittii AG225; experiment: MIC by broth microdilution, Acinetobacter baumannii; format: cell-based; settings: strain AG225 Acinetobacter baumannii pittii
[2] = tested on: A1555G mutant mitochondrial ribosome (human chimeric); experiment: in-vitro translation assay, human chimeric ribosomes, A1555G mutant mitochondrial decoding site; format: biochemical; settings: Table 3 (Example 3)
Excerpt: (§1) The antiribosomal activity of these compounds was investigated with cell-free translation assays using both wild type bacterial ribosomes and hybrid ribosomes carrying eukaryotic decoding A sites enabling the prediction of selectivity.

P aeruginosa = experiment: MIC by broth microdilution, P aeruginosa isolates; format: cell-based, Pseudomonas aeruginosa; settings: strain AG220 Pseudomonas aeruginosa ATCC27853; for MIC: read-out: MIC AG220 P. aerugin
[3] = tested on: Klebsiella pneumonia AG215; experiment: MIC by broth microdilution, Klebsiella pneumonia; format: cell-based; settings: strain AG215 Klebsiella pneumonia; for MIC: Klebsiella pneumoniae, read-out: MIC AG215 K. pneumon
[4] = tested on: mitochondrial ribosome (human chimeric); format: biochemical; settings: for Selectivity for Binding to the Bacterial Ribosome over the Mitochondrial Ribosome: Table 3 (Example 3); for pIC50: mitochondrial, Table 4 (Example 3), read-out: IC50 Mit
Excerpt: as §1

[5] = tested on: cytosolic ribosome (human chimeric); format: biochemical; settings: for Selectivity for Binding to the Bacterial Ribosome over the Cytosolic Ribosome: Table 3 (Example 3); for pIC50: cytosolic, Table 4 (Example 3), read-out: IC50 Cyt
Excerpt: as §1

M. smegmatis SZ380 = experiment: MIC by broth microdilution, M. smegmatis; settings: for MIC: Mycolicibacterium smegmatis
MRSA = experiment: MIC by broth microdilution, MRSA isolates; format: cell-based; settings: Table 1 (Example 3); for MIC: Staphylococcus aureus, MRSA
[6] = tested on: E coli carrying specific resistance determinants; experiment: MIC by broth microdilution, E coli carrying specific resistance determinants; format: cell-based; settings: for MIC: Escherichia coli
E coli wild type = experiment: MIC by broth microdilution, wild type E coli; format: cell-based; settings: for antibacterial activity, in words: MRSA and E coli, compared with the parent compound; for MIC: Escherichia coli
[7] = tested on: Enterobacter cloacae AG290; experiment: MIC by broth microdilution, Enterobacter cloacae; format: cell-based; settings: strain AG290 Enterobacter cloacae; read-out: MIC AG290 E. cloacae
[8] = tested on: wild type bacterial ribosomes; experiment: in-vitro translation assay, bacterial ribosomes; format: biochemical; settings: for pIC50: bacterial ribosome, Table 4 (Example 3), read-out: IC50 Bac; for selectivity for the bacterial ribosome over mitochondrial (wild type, A1555G mutant) and cytosolic ribosomes, in words: compared with the parent compound
Excerpt: as §1

M. abscessus = experiment: MIC by broth microdilution, M. abscessus; format: cell-based; settings: Mycobacteroides abscessus
[9] = SZ380, read-out: MIC M. smegmatis SZ380 WT, SZ380 WT, Table 5 (Example 3)
[10] = SZ380, read-out: MIC SZ380 M. smegmatis, strain SZ380 Mycobacterium smegmatis
[11] = clinical isolate AG038, read-out: MIC MRSA AG038
[12] = clinical isolate AG039, read-out: MIC MRSA AG039
[13] = clinical isolate AG042, read-out: MIC MRSA AG042
[14] = ATCC19977, ATCC 19977 WT, Table 5 (Example 3), read-out: MIC M. abscessus ATCC 19977 WT
[15] = read-out: MIC M. abscessus engineered Δeis2
[16] = ATCC, Table 4 (Example 3), read-out: MIC M. abscessus ATCC
[17] = Clin. Isol., Table 4 (Example 3), read-out: MIC M. abscessus Clin. Isol.
[18] = read-out: MIC E coli AG106 AAC(2′)
[19] = read-out: MIC E. coli AAC(2′) AG106
[20] = read-out: MIC E. coli AAC(2′) pH434
[21] = read-out: MIC E. coli AG106 AAC(2′)-Ia
[22] = read-out: MIC E. coli pGB2armA armA
[23] = read-out: MIC E. coli pH434 AAC(2′)-Ib
[24] = AG104 Wild type, Table 2 (Example 3), read-out: MIC E coli AG104 Wild type
[25] = ATCC25922, strain AG212 E. coli (ATCC25922), read-out: MIC AG212 E. coli
[26] = WT, Table 4 (Example 3), read-out: MIC E. coli WT
[27] = WT, Table 5 (Example 3), read-out: MIC E. coli WT
[28] = clinical isolate AG001, Table 1 (Example 3), read-out: MIC E coli AG001
[29] = clinical isolate AG003, Table 1 (Example 3), read-out: MIC E coli AG003
[30] = clinical isolate AG055, Table 1 (Example 3), read-out: MIC E coli AG055

CC(=O)NC1C(OC2C(N)CC(N)C(O)C2OC2OC(CO)C(OC3OC(CN)C(O)C(O)C3N)C2O)OC(CN)C(O)C1O (centres unmarked) [Compound 183]
MIC AG225 A. baumannii [1]: >32 µg/mL | Selectivity for Binding to the Bacterial Ribosome over the Mutant Mitochondrial Ribosome [2]: 5.2 | MIC AG220 P. aerugin (P aeruginosa): >32 µg/mL | MIC AG215 K. pneumon [3]: >32 µg/mL | Selectivity for Binding to the Bacterial Ribosome over the Mitochondrial Ribosome [4]: 18 | Selectivity for Binding to the Bacterial Ribosome over the Cytosolic Ribosome [5]: 28 | MIC M. smegmatis SZ380 WT (M. smegmatis SZ380; SZ380 WT, Table 5 (Example 3)): 8 µg/mL (≈ 12.2 µM) | MIC SZ380 M. smegmatis (M. smegmatis SZ380; strain SZ380 Mycobacterium smegmatis): 8 µg/mL (≈ 12.2 µM) | MIC MRSA AG038 (MRSA; clinical isolate AG038): >32 µg/mL | MIC MRSA AG039 (MRSA; clinical isolate AG039): >32 µg/mL | MIC MRSA AG042 (MRSA; clinical isolate AG042): >32 µg/mL | MIC E. coli AG106 AAC(2′)-Ia ([6]; AG106 AAC(2′)-Ia, Table 5 (Example 3)): 128 µg/mL (≈ 195 µM) | MIC E coli AG106 AAC(2′) ([6]; AG106 AAC(2′), Table 2 (Example 3)): 128 µg/mL (≈ 195 µM) | MIC E. coli pGB2armA armA ([6]; pGB2armA armA, Table 5 (Example 3)): 128-256 μg/ml | MIC E coli AG006 Wild type (E coli wild type; AG006 Wild type, Table 2 (Example 3)): 64 µg/mL (≈ 97.5 µM) | MIC E coli AG104 Wild type (E coli wild type; AG104 Wild type, Table 2 (Example 3)): 128 µg/mL (≈ 195 µM) | antibacterial activity, in words (E coli wild type): very substantial loss of activity; also recorded: very significantly reduced activity | MIC E. coli WT (E coli wild type; WT, Table 5 (Example 3)): 128 µg/mL (≈ 195 µM) | MIC E coli AG001 (E coli wild type; clinical isolate AG001, Table 1 (Example 3)): >32 µg/mL | MIC E coli AG003 (E coli wild type; clinical isolate AG003, Table 1 (Example 3)): >32 µg/mL | MIC E coli AG055 (E coli wild type; clinical isolate AG055, Table 1 (Example 3)): >32 µg/mL | MIC AG212 E. coli (E coli wild type; strain AG212 E. coli (ATCC25922)): >32 µg/mL

NCC1OC(OC2C(CO)OC(OC3C(O)C(N)CC(N)C3OC3OC(CN)C(O)C(O)C3NC=O)C2O)C(N)C(O)C1O (centres unmarked) [Compound 182, 2′-N-Formamido-neomycin]
MIC [1]: 2 µg/mL (≈ 3.11 µM) | Selectivity for Binding to the Bacterial Ribosome over the Mutant Mitochondrial Ribosome [2]: 108 | MIC (P aeruginosa): > 64 µg/mL | MIC [7]: 2 µg/mL (≈ 3.11 µM) | pIC50 [8]: 6.92 | selectivity for the bacterial ribosome over mitochondrial (wild type, A1555G mutant) and cytosolic ribosomes, in words [8]: increased selectivity for the bacterial ribosome | MIC [3]: 1 to 2 µg/mL (≈ 1.56 to 3.11 µM) | Selectivity for Binding to the Bacterial Ribosome over the Mitochondrial Ribosome [4]: 463 | pIC50 [4]: 4.27 | Selectivity for Binding to the Bacterial Ribosome over the Cytosolic Ribosome [5]: 1093 | pIC50 [5]: 3.90 | MIC (M. smegmatis SZ380; [9]): 1 µg/mL (≈ 1.56 µM) | MIC (M. smegmatis SZ380; [10]): 1 µg/mL (≈ 1.56 µM) | MIC (MRSA; [11]): 2 to 4 µg/mL (≈ 3.11 to 6.22 µM) | MIC (MRSA; [12]): > 32 µg/mL | MIC (MRSA; [13]): > 32 µg/mL | MIC (M. abscessus; [14]): 16 µg/mL (≈ 24.9 µM) | MIC (M. abscessus; [15]): 0.5 µg/mL (≈ 0.778 µM) | MIC (M. abscessus; [16]): 16 µg/mL (≈ 24.9 µM) | MIC (M. abscessus; [17]): 32 µg/mL (≈ 49.8 µM) | effect of the AAC(2′) resistance determinant, in words ([6]; AAC(2′)): not susceptible to deactivation by AAC(2′) | MIC [6, 18]: 2 µg/mL (≈ 3.11 µM) | MIC [6, 19]: 2 µg/mL (≈ 3.11 µM) | MIC [6, 20]: 8 to 16 µg/mL (≈ 12.4 to 24.9 µM) | MIC [6, 21]: 2 µg/mL (≈ 3.11 µM) | MIC [6, 22]: 8 µg/mL (≈ 12.4 µM) | MIC [6, 23]: 8 to 16 µg/mL (≈ 12.4 to 24.9 µM) | MIC (E coli wild type; AG006 Wild type, Table 2 (Example 3), read-out: MIC E coli AG006 Wild type): 2 µg/mL (≈ 3.11 µM) | MIC (E coli wild type; [24]): 2 to 4 µg/mL (≈ 3.11 to 6.22 µM) | MIC (E coli wild type; [25]): 4 µg/mL (≈ 6.22 µM) | MIC (E coli wild type; [26]): 2 µg/mL (≈ 3.11 µM) | MIC (E coli wild type; [27]): 2 µg/mL (≈ 3.11 µM) | MIC (E coli wild type; [28]): 4 to 8 µg/mL (≈ 6.22 to 12.4 µM) | MIC (E coli wild type; [29]): 4 to 8 µg/mL (≈ 6.22 to 12.4 µM) | MIC (E coli wild type; [30]): 2 µg/mL (≈ 3.11 µM) | antibacterial activity, in words (E coli wild type): retains most of the activity of the parent

CNC1C(OC2C(N)CC(N)C(O)C2OC2OC(CO)C(OC3OC(CN)C(O)C(O)C3N)C2O)OC(CO)C(O)C1O (centres unmarked) [Compound 115, 2′-N-Methyl-paromomycin acetate salt]
MIC [1]: 4 µg/mL | Selectivity for Binding to the Bacterial Ribosome over the Mutant Mitochondrial Ribosome [2]: 1134 | MIC (P aeruginosa): > 64 µg/mL | MIC [7]: 2 µg/mL | pIC50 [8]: 7.52 | selectivity for the bacterial ribosome over mitochondrial (wild type, A1555G mutant) and cytosolic ribosomes, in words [8]: increased selectivity for the bacterial ribosome | MIC [3]: 2 µg/mL | Selectivity for Binding to the Bacterial Ribosome over the Mitochondrial Ribosome [4]: 3151 | pIC50 [4]: 4.02 | Selectivity for Binding to the Bacterial Ribosome over the Cytosolic Ribosome [5]: 1264 | pIC50 [5]: 4.42 | MIC (M. smegmatis SZ380; [9]): 4 to 8 µg/mL | MIC (M. smegmatis SZ380; [10]): 4 to 8 µg/mL | MIC (MRSA; [11]): 8 µg/mL | MIC (MRSA; [12]): > 128 µg/mL | MIC (MRSA; [13]): > 128 µg/mL | MIC (MRSA; clinical isolate AG044, read-out: MIC MRSA AG044): 4 µg/mL | MIC (M. abscessus; [14]): 16 µg/mL | MIC (M. abscessus; [15]): 0.5 µg/mL | MIC (M. abscessus; [16]): 16 µg/mL | MIC (M. abscessus; [17]): 32 µg/mL | MIC [6, 18]: 4 to 8 µg/mL | MIC [6, 19]: 4 µg/mL | MIC [6, 20]: 8 µg/mL | MIC [6, 21]: 4 µg/mL | MIC [6, 22]: 4 to 8 µg/mL | MIC [6, 23]: 8 µg/mL | MIC (E coli wild type; [24]): 2 to 4 µg/mL | MIC (E coli wild type; [25]): 4 µg/mL | MIC (E coli wild type; [26]): 2 to 4 µg/mL | MIC (E coli wild type; [27]): 2 to 4 µg/mL | MIC (E coli wild type; [28]): 16 µg/mL | MIC (E coli wild type; [29]): 16 µg/mL | MIC (E coli wild type; [30]): 16 µg/mL
